The NOAEL is the highest tested level that showed no adverse finding.

The source of these data is EPA's ToxValDB 9.5 (doi:10.2903/j.efsa.2009.1348).

One data set relates to Oryctolagus sp. The note with it: reproduction developmental; reproduction.
For another data set, the system named is Daphnia magna. The note with it: chronic/long-term; duration: 21 days; reproduction.
For another data set, the system named is Bird. As to conditions: for LD50: acute, unspecified.
For the next data set, the system named is Bibionidae. As to conditions: chronic/long-term; duration: 28 days.
For data set [1] the following is noted: chronic/long-term.
Another data set concerns Canidae. The note with it: chronic; duration: 1 years; oral; Dog Other; organ weight.
The next data set relates to Apis mellifera. The note with it: acute; duration: 48 hours; oral; unspecified; mortality.
A further data set relates to Lepomis macrochirus. As to conditions: acute; duration: 96 hours; mortality.
In another data set the test system is Oncorhynchus mykiss. The note with it: chronic/long-term; duration: 28 days.

Converted amounts (≈) assume the structure as drawn.

For `C[C@@H](Oc1ccc(Oc2ncc(C(F)(F)F)cc2Cl)cc1)C(=O)O` [Haloxyfop-P], the NOAEL was 7.5 mg/kg-day in the data set with Oryctolagus sp.; 1 mg/kg-day in data set [1]; 0.065 mg/kg-day in the data set on Rattus norvegicus (chronic, duration: 2 years, organ weight); 0.065 mg/kg-day in the data set with Rattus norvegicus (reproduction developmental, body weight); 0.5 mg/kg-day with Canidae. Moreover, the LEL worked out at 5.7 g/ha with Aphidius rhopalosiphi (chronic/long-term, reproduction) and 108 g/ha with Aphidius rhopalosiphi (not reported, mortality). The NOEC amounted to 0.509 mg/L in the data set with Daphnia magna, 17.1 mg/kg-day in the data set on Bird (reproductive), 2.5 mg/L with Bibionidae and 810 g/ha in the data set with Tagia sp. (chronic/long-term). Further, the LD50 in the data set with Bird (oral, mortality) was 414 mg/kg; with Rattus norvegicus (acute, oral, mortality), 300 mg/kg; in the data set on Apis mellifera it was over 100 µg/piece. Besides, the LC50 in the data set with Bird (short-term, oral, feed, mortality) was over 1110 mg/kg-day; with Tagia sp. (acute, mortality), 830 mg/kg; in the data set on Lepomis macrochirus, 0.0884 µg/mL (≈ 0.244 µM).

For `COC(=O)[C@@H](C)Oc1ccc(Oc2ncc(C(F)(F)F)cc2Cl)cc1` [Haloxyfop-P-methyl], the NOEC in the data set on Oncorhynchus mykiss amounted to 0.0052 mg/L. This molecule also came in with an LD50 in the data set on Bird (oral, mortality) of 1160 mg/kg-day.
